Experimental data from patent US20230085307A1, “PYRIDAZINONE COMPOUND AND HERBICIDE” (NISSAN CHEMICAL CORPORATION, priority 2019, published 2023).

Columns and labels:
barnyard grass [1] = assay: Test Example 3: herbicidal effect by foliage application, Wagner pot (Table 18, symbol H); assay type: in vivo, barnyard grass (Echinochloa crus-galli); details: 320 g/ha
How it was run: (§1)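 Plants were sown in alluvial soil held under 0.1–0.5 cm standing water and grown 14 days in a greenhouse at 25–30 °C. An emulsifiable formulation, water-diluted to the set dose, was then sprayed onto the foliage, and effects were scored three weeks later using previously defined criteria.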

Chinese sprangletop = assay: Test Example 3: herbicidal effect by foliage application, Wagner pot (Table 18, symbol D); assay type: in vivo, chinese sprangletop (Leptochloa chinensis); details: 320 g/ha
How it was run: as §1

rice flat sedge = assay: Test Example 3: herbicidal effect by foliage application, Wagner pot (Table 18, symbol E); assay type: in vivo, rice flat sedge (Cyperus iria); details: 320 g/ha
How it was run: as §1

southern crabgrass [2] = assay: Test Example 4: herbicidal effect by soil treatment (Table 19, symbol F); assay type: in vivo, southern crabgrass (Digitaria ciliaris); details: amount of applied herbicide 320 g/ha
How it was run: (§2)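 Three weeks of greenhouse growth at 25° C. to 30° C. followed a uniform surface spray of water-diluted emulsion at a predetermined herbicide amount. Seeds had been sown beforehand under about 1.5 cm of sterilized diluvial soil. Grading followed criteria set out in an earlier test.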

barnyard grass [3] = assay: Test Example 4: herbicidal effect by soil treatment (Table 19, symbol H); assay type: in vivo, barnyard grass (Echinochloa crus-galli); details: amount of applied herbicide 320 g/ha
How it was run: as §2

wild oat [4] = assay: Test Example 4: herbicidal effect by soil treatment (Table 19, symbol I); assay type: in vivo, wild oat (Avena fatua); details: amount of applied herbicide 320 g/ha
How it was run: as §2

blackgrass [5] = assay: Test Example 4: herbicidal effect by soil treatment (Table 19, symbol J); assay type: in vivo, blackgrass (Alopecurus myosuroides); details: amount of applied herbicide 320 g/ha
How it was run: as §2

Italian ryegrass [6] = assay: Test Example 4: herbicidal effect by soil treatment (Table 19, symbol K); assay type: in vivo, Italian ryegrass (Lolium multiflorum); details: amount of applied herbicide 320 g/ha
How it was run: as §2

windgrass [7] = assay: Test Example 4: herbicidal effect by soil treatment (Table 19, symbol L); assay type: in vivo, windgrass (Apera spica-venti); details: amount of applied herbicide 320 g/ha
How it was run: as §2

velvetleaf [8] = assay: Test Example 4: herbicidal effect by soil treatment (Table 19, symbol M); assay type: in vivo, velvetleaf (Abutilon theophrasti); details: amount of applied herbicide 320 g/ha
How it was run: as §2

redroot pigweed [9] = assay: Test Example 4: herbicidal effect by soil treatment (Table 19, symbol N); assay type: in vivo, redroot pigweed (Amaranthus retroflexus); details: amount of applied herbicide 320 g/ha
How it was run: as §2

lambsquarters [10] = assay: Test Example 4: herbicidal effect by soil treatment (Table 19, symbol O); assay type: in vivo, lambsquarters (Chenopodium album); details: amount of applied herbicide 320 g/ha
How it was run: as §2

chickweed [11] = assay: Test Example 4: herbicidal effect by soil treatment (Table 19, symbol P); assay type: in vivo, common chickweed (Stellaria media); details: amount of applied herbicide 320 g/ha
How it was run: as §2

persian speedwell [12] = assay: Test Example 4: herbicidal effect by soil treatment (Table 19, symbol R); assay type: in vivo, Persian speedwell (Veronica persica); details: amount of applied herbicide 320 g/ha
How it was run: as §2

southern crabgrass [13] = assay: Test Example 5: herbicidal effect by foliage application, plastic box (Table 20, symbol F); assay type: in vivo, southern crabgrass (Digitaria ciliaris); details: foliage application, 320 g/ha, three weeks after application
How it was run: (§3)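 Plants sown in sterilized diluvial soil and grown 14 days in a greenhouse at 25° C to 30° C, then sprayed on the foliage with the compound's emulsion diluted in water to a predetermined herbicide amount. Injury to weeds and crops scored three weeks after application on a visual rating scale.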

green foxtail = assay: Test Example 5: herbicidal effect by foliage application, plastic box (Table 20, symbol G); assay type: in vivo, green foxtail (Setaria viridis); details: foliage application, 320 g/ha, three weeks after application
How it was run: as §3

barnyard grass [14] = assay: Test Example 5: herbicidal effect by foliage application, plastic box (Table 20, symbol H); assay type: in vivo, barnyard grass (Echinochloa crus-galli); details: foliage application, 320 g/ha, three weeks after application
How it was run: as §3

wild oat [15] = assay: Test Example 5: herbicidal effect by foliage application, plastic box (Table 20, symbol I); assay type: in vivo, wild oat (Avena fatua); details: foliage application, 320 g/ha, three weeks after application
How it was run: as §3

blackgrass [16] = assay: Test Example 5: herbicidal effect by foliage application, plastic box (Table 20, symbol J); assay type: in vivo, blackgrass (Alopecurus myosuroides); details: foliage application, 320 g/ha, three weeks after application
How it was run: as §3

Italian ryegrass [17] = assay: Test Example 5: herbicidal effect by foliage application, plastic box (Table 20, symbol K); assay type: in vivo, Italian ryegrass (Lolium multiflorum); details: foliage application, 320 g/ha, three weeks after application
How it was run: as §3

windgrass [18] = assay: Test Example 5: herbicidal effect by foliage application, plastic box (Table 20, symbol L); assay type: in vivo, windgrass (Apera spica-venti); details: foliage application, 320 g/ha, three weeks after application
How it was run: as §3

velvetleaf [19] = assay: Test Example 5: herbicidal effect by foliage application, plastic box (Table 20, symbol M); assay type: in vivo, velvetleaf (Abutilon theophrasti); details: foliage application, 320 g/ha, three weeks after application
How it was run: as §3

redroot pigweed [20] = assay: Test Example 5: herbicidal effect by foliage application, plastic box (Table 20, symbol N); assay type: in vivo, redroot pigweed (Amaranthus retroflexus); details: foliage application, 320 g/ha, three weeks after application
How it was run: as §3

lambsquarters [21] = assay: Test Example 5: herbicidal effect by foliage application, plastic box (Table 20, symbol O); assay type: in vivo, lambsquarters (Chenopodium album); details: foliage application, 320 g/ha, three weeks after application
How it was run: as §3

chickweed [22] = assay: Test Example 5: herbicidal effect by foliage application, plastic box (Table 20, symbol P); assay type: in vivo, common chickweed (Stellaria media); details: foliage application, 320 g/ha, three weeks after application
How it was run: as §3

persian speedwell [23] = assay: Test Example 5: herbicidal effect by foliage application, plastic box (Table 20, symbol R); assay type: in vivo, Persian speedwell (Veronica persica); details: foliage application, 320 g/ha, three weeks after application
How it was run: as §3

CSc1ccccc1-c1sc2ccccc2c1-c1c(O)c(C)nn(C)c1=O [1-034]
herbicidal effect on H (barnyard grass), rating 0-5 (barnyard grass [1]): 1 (Herbicidal rate of 5% or more and less than 20%)
herbicidal effect on D (Chinese sprangletop), rating 0-5 (Chinese sprangletop): 0 (Herbicidal rate of 5% or less (almost no effect))
herbicidal effect on E (rice flat sedge), rating 0-5 (rice flat sedge): 3 (Herbicidal rate of 40% or more and less than 70%)
herbicidal effect rating, F: southern crabgrass (southern crabgrass [2]): 0 (Herbicidal rate of 5% or less (almost no effect))
herbicidal effect rating, H: barnyard grass (barnyard grass [3]): 0 (Herbicidal rate of 5% or less (almost no effect))
herbicidal effect rating, I: wild oat (wild oat [4]): 0 (Herbicidal rate of 5% or less (almost no effect))
herbicidal effect rating, J: blackgrass (blackgrass [5]): 0 (Herbicidal rate of 5% or less (almost no effect))
herbicidal effect rating, K: Italian ryegrass (Italian ryegrass [6]): 0 (Herbicidal rate of 5% or less (almost no effect))
herbicidal effect rating, L: windgrass (windgrass [7]): 0 (Herbicidal rate of 5% or less (almost no effect))
herbicidal effect rating, M: velvetleaf (velvetleaf [8]): 0 (Herbicidal rate of 5% or less (almost no effect))
herbicidal effect rating, N: redroot pigweed (redroot pigweed [9]): 0 (Herbicidal rate of 5% or less (almost no effect))
herbicidal effect rating, O: lambsquarters (lambsquarters [10]): 0 (Herbicidal rate of 5% or less (almost no effect))
herbicidal effect rating, P: chickweed (chickweed [11]): 3 (Herbicidal rate of 40% or more and less than 70%)
herbicidal effect rating, R: persian speedwell (persian speedwell [12]): 0 (Herbicidal rate of 5% or less (almost no effect))
herbicidal effect grade, F: southern crabgrass (southern crabgrass [13]): 0 (Herbicidal rate of 5% or less (almost no effect))
herbicidal effect grade, G: green foxtail (green foxtail): 0 (Herbicidal rate of 5% or less (almost no effect))
herbicidal effect grade, H: barnyard grass (barnyard grass [14]): 0 (Herbicidal rate of 5% or less (almost no effect))
herbicidal effect grade, I: wild oat (wild oat [15]): 2 (Herbicidal rate of 20% or more and less than 40%)
herbicidal effect grade, J: blackgrass (blackgrass [16]): 0 (Herbicidal rate of 5% or less (almost no effect))
herbicidal effect grade, K: Italian ryegrass (Italian ryegrass [17]): 0 (Herbicidal rate of 5% or less (almost no effect))
herbicidal effect grade, L: windgrass (windgrass [18]): 0 (Herbicidal rate of 5% or less (almost no effect))
herbicidal effect grade, M: velvetleaf (velvetleaf [19]): 0 (Herbicidal rate of 5% or less (almost no effect))
herbicidal effect grade, N: redroot pigweed (redroot pigweed [20]): 0 (Herbicidal rate of 5% or less (almost no effect))
herbicidal effect grade, O: lambsquarters (lambsquarters [21]): 0 (Herbicidal rate of 5% or less (almost no effect))
herbicidal effect grade, P: chickweed (chickweed [22]): 4 (Herbicidal rate of 70% or more and less than 90%)
herbicidal effect grade, R: persian speedwell (persian speedwell [23]): 1 (Herbicidal rate of 5% or more and less than 20%)
